# Literature values as cited in patent publication US20250222024A1, “METHOD AND COMPOSITION FOR TREATING CORONA VIRUS, INFLUENZA, AND ACUTE RESPIRATORY DISTRESS SYNDROME” (ReversPAH LLC, priority 2020, published 2025).
# Key:
# SARS-CoV-2 = conditions: in vitro
# [1] = system: Sugen/hypoxia-induced PAH; conditions: rat
# [2] = system: silica-induced lung inflammation and fibrosis; conditions: by inhibiting T-helper 17 cell (TH 17)
# [3] = system: monocrotaline-induced pulmonary hypertension; conditions: through the bone morphogenetic protein signaling pathway
# [4] = system: carrageenan-induced lung injury; conditions: for TNF-alpha levels in the lung / nitrite and nitrate levels (stable NO metabolites) in pleural exudates: 4 hours after carrageenan administration, versus CAR group, n=8 mice; for TNF-alpha levels in the lung: FIG. 10(a); for nitrite and nitrate levels (stable NO metabolites) in pleural exudates: FIG. 10(b)
compound,measurement,setting,value
Ivermectin,replication of SARS-CoV-2,SARS-CoV-2,inhibits the replication of SARS-CoV-2 in vitro
S=C(S)N1CCCC1 [pyrrolidine dithiocarbamate],reversal of established angio-obliterative PAH,[1],reverse established angio-obliterative PAH
O=C(O)[C@H]1O[C@@H](Oc2cc3oc(-c4ccccc4)cc(=O)c3c(O)c2O)[C@H](O)[C@@H](O)[C@@H]1O [Baicalin],silica-induced lung inflammation and fibrosis,[2],alleviate silica-induced lung inflammation and fibrosis
same,monocrotaline-induced pulmonary hypertension,[3],attenuate monocrotaline-induced pulmonary hypertension
COc1ccc2c(c1)c(CC(=O)O)c(C)n2C(=O)c1ccc(Cl)cc1 [INDO],TNF-alpha levels in the lung,[4],did not reduce the TNF-alpha level
same,nitrite and nitrate levels (stable NO metabolites) in pleural exudates,[4],significantly reduced the nitrite and nitrate level
"CCN(CC)C(=O)N1CCN(C)CC1 [DEC, Diethylcarbamazine]",TNF-alpha levels in the lung,[4],significantly reduced the TNF-alpha levels
same,nitrite and nitrate levels (stable NO metabolites) in pleural exudates,[4],significantly reduced the nitrite and nitrate level
same,neutrophil infiltration into the lung (myeloperoxidase marker),"[4]; mouse acute lung injury model, DEC pretreatment, FIG. 9",significantly inhibited neutrophil infiltration
